Measurements: patent US6603023B2 (priority 1996, dated 2003)
Several values for one entry are separate records, joined by “and”; a condition that tells them apart may be missing. Equal values may be shown once. Where a name gives a salt, the structure may show the parent alone. Read-outs that look alike come from different tables or passages of the source. Marks after values point to notes of the source that are not given here.

Legend:
murine leukemic P388/0 = experiment: XTT cytotoxicity, P388/0; type: cell-based; settings: Table 1C; XTT, 72 h; read-out: IC50
In short: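 Cells seeded at 5×10^4 cells/mL in RPMI-1640 + 10% heat-inactivated FBS, 37 °C/5% CO2; resistant lines cultured continuously with selecting agent. 72 h drug incubation. XTT (1 mg/mL) mixed with PMS to 0.025 mM PMS, 4 h, read 450 nm/630 nm.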

MCF-7/Adr = experiment: cells; type: cell-based, human; settings: Table 1C
In short: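 Sulforhodamine B readout: TCA-fixed cultures stained 30 min with 0.4% SRB, bound dye extracted in unbuffered Tris and read at 570 nm. Duplicate experiments, six to seven drug concentrations per run.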

[1] = tested on: human mammary carcinoma MX-1 xenograft; settings: for Average Body Weight, Day 7: initial weight, first treatment day
Experimental: DMSO was used as a vehicle for epothilones. Each mouse received ≦40 μL DMSO in all experiments.
Athymic nude mice (nu/nu) were used for MX-1 and MCF-7/Adr human mammary carcinoma xenografts. Mice were obtained from Taconic Laboratory Animals and Service (Germantown, N.Y.: outbred, Swiss background).

B16 Melanoma = type: in vivo, B6D2F1 mice
Experimental: Body weight was determined at 0, 2, 4, 6, 8, 10 and 12 days. […] Injections were started on day 1. […] Body weight was determined at 0, 2, 4, 6, 8, 10 and 12 days. […] Injections were started on day 1.

[2] = tested on: A549 Human Lung Carcinoma; experiment: A549 xenograft; type: in vivo, nude mice; settings: Q2D x 3: dEpoB 30 mg/kg 18 hr i.v. infusion, Taxol 15 mg/kg 6 hr infusion, VBL 2 and VP-16 25 mg/kg i.v. inj
[3] = 0.3 mg/kg i.p. Q2Dx5 from day 7, day 11
[4] = 0.3 mg/kg i.p. Q2Dx5 from day 7, day 13
[5] = 0.3 mg/kg i.p. Q2Dx5 from day 7, day 15
[6] = 0.3 mg/kg i.p. Q2Dx5 from day 7, day 17
[7] = 0.6 mg/kg i.p. Q2Dx5 from day 7, day 11
[8] = 0.6 mg/kg i.p. Q2Dx5 from day 7, day 13
[9] = 0.6 mg/kg i.p. Q2Dx5 from day 7, day 15
[10] = 0.6 mg/kg i.p. Q2Dx5 from day 7, day 17
[11] = 0.6 mg/kg i.p. Q2Dx5 from day 9
[12] = 0.6 mg/kg i.p. Q2Dx5 from day 9, day 13
[13] = 0.6 mg/kg i.p. Q2Dx5 from day 9, day 15
[14] = 0.6 mg/kg i.p. Q2Dx5 from day 9, day 17
[15] = 0.6 mg/kg i.p. Q2Dx5 from day 9, day 19
[16] = high doses: dEpoB 25, EpoB 0.6, Taxol 10, Vinblastine 0.4 mg/kg i.p. Q2D from day 7
[17] = low doses: dEpoB 15, EpoB 0.3, Taxol 5, Vinblastine 0.2 mg/kg i.p. Q2D day 7-15

Structure (SMILES): C/C(=C\c1csc(C)n1)[C@@H]1C[C@@H]2O[C@]2(C)CCC[C@H](C)[C@H](O)[C@@H](C)C(=O)C(C)(C)[C@@H](O)CC(=O)O1 [Epothilone B, epothilone B]
- IC50 (murine leukemic P388/0): 0.29 nM
- folds of resistance (IC50 ratio vs parent cell line) (MCF-7/Adr; MCF-7/Adr vs MCF-7): (5.4x)
- IC50 (MCF-7/Adr; SRB, 72 h, read-out: IC50): 2.7 nM
- Toxicity Death ([1]; 0.3 mg/kg i.p. Q2Dx5 from day 7): 0/7
- Average Body Weight Change [1, 3]: +0.5 g
- Average Tumor Size (T/C) [1, 3]: 1.00
- Average Body Weight Change [1, 4]: +0.4 g
- Average Tumor Size (T/C) [1, 4]: 0.71
- Average Body Weight Change [1, 5]: -0.3 g
- Average Tumor Size (T/C) [1, 5]: 0.71
- Average Body Weight Change [1, 6]: -1.2 g
- Average Tumor Size (T/C) [1, 6]: 0.84
- Toxicity Death ([1]; 0.6 mg/kg i.p. Q2Dx5 from day 7): 3/7)##
- Average Body Weight Change [1, 7]: -0.3 g
- Average Tumor Size (T/C) [1, 7]: 1.08
- Average Body Weight Change [1, 8]: -1.3 g
- Average Tumor Size (T/C) [1, 8]: 0.73
- Average Body Weight Change [1, 9]: -2.1 g
- Average Tumor Size (T/C) [1, 9]: 0.81
- Average Body Weight Change [1, 10]: -2.1 g
- Average Tumor Size (T/C) [1, 10]: 0.74
- Toxicity Death [1, 11]: 0/6
- Tumor Disapp. [1, 11]: 0/6
- Average Body Weight Change [1, 12]: -0.9 g
- Average Tumor Size (T/C) [1, 12]: 0.67
- Average Body Weight Change [1, 13]: 0.5 g
- Average Tumor Size (T/C) [1, 13]: 0.63
- Average Body Weight Change [1, 14]: -3.3 g
- Average Tumor Size (T/C) [1, 14]: 0.61
- Average Body Weight Change [1, 15]: -3.4 g
- Average Tumor Size (T/C) [1, 15]: 0.51
- average body weight decrease ([1]; EpoB 0.3 mg/kg i.p. days 7-15): over 1 g
- average body weight decrease ([1]; EpoB 0.6 mg/kg i.p. days 7-15): > 2 g
- mice died of toxicity ([1]; EpoB 0.6 mg/kg i.p. days 7-15): three out of seven
- Therapeutic effect Rank Order ([1]; MX-1, i.p., comparison with Camptothecin, VBL, EpoB (order wraps over rows r7-r8)): Taxol ® > VBL, EpoB
- Average Body Weight (change), Day 11 [1, 16]: -0.3 g
- Average Body Weight (change), Day 13 [1, 16]: -1.3 g
- Average Body Weight (change), Day 15 [1, 16]: -2.1 g
- Average Body Weight Change, Day 17 [1, 16]: -2.1 g
- Average Tumor Volume (T/C), Day 11 [1, 16]: 1.08 T/C
- Average Tumor Volume (T/C), Day 13 [1, 16]: 0.73 T/C
- Average Tumor Volume (T/C), Day 15 [1, 16]: 0.81 T/C
- Average Tumor Volume (T/C), Day 17 [1, 16]: 0.74 T/C
- Note: died (mice died/total) [1, 16]: 3/7 died
- Average Body Weight, Day 7 [1, 16]: 27.4 g
- Average Body Weight, Day 7 [1, 17]: 26.9 g
- Average Body Weight (change), Day 11 [1, 17]: +0.5 g
- Average Body Weight (change), Day 13 [1, 17]: +0.4 g
- Average Body Weight (change), Day 15 [1, 17]: -0.3 g
- Average Body Weight Change, Day 17 [1, 17]: -1.2 g
- Average Tumor Volume (T/C), Day 11 [1, 17]: 1.00 T/C
- Average Tumor Volume (T/C), Day 13 [1, 17]: 0.71 T/C
- Average Tumor Volume (T/C), Day 15 [1, 17]: 0.71 T/C
- Average Tumor Volume (T/C), Day 17 [1, 17]: 0.84 T/C
- Note: died (mice died/total) [1, 17]: 0/7 died
- Average Tumor Volume (T/C) (B16 Melanoma; 0.4 mg/kg QD × 6 from day 1, day 7): 1.07
- # Mice Died (B16 Melanoma; 0.8 mg/kg QD × 5 from day 1): 5/8
- Average Tumor Volume (T/C) (B16 Melanoma; 0.8 mg/kg QD × 5 from day 1, day 9): 0.46
- Therapeutic effect Rank Order (B16 Melanoma; B16 Melanoma, i.p.): dEpoB > Taxol ® >> EpoB

Structure (SMILES): CC[C@]1(O)C[C@@H]2CN(CCc3c([nH]c4ccccc34)[C@@](C(=O)OC)(c3cc4c(cc3OC)N(C)[C@H]3[C@@](O)(C(=O)OC)[C@H](OC(C)=O)[C@]5(CC)C=CCN6CC[C@]43[C@@H]65)C2)C1 [Vinblastine, Vinblastine sulfate]
- Average Body Weight Change ([1]; 0.2 mg/kg i.p. Q2Dx5 from day 7, day 11): +0.6 g
- Average Body Weight Change ([1]; 0.2 mg/kg i.p. Q2Dx5 from day 7, day 13): +1.4 g
- Average Body Weight Change ([1]; 0.2 mg/kg i.p. Q2Dx5 from day 7, day 15): +2.3 g
- Average Body Weight Change ([1]; 0.2 mg/kg i.p. Q2Dx5 from day 7, day 17): +2.9 g
- Average Body Weight Change ([1]; 0.4 mg/kg i.p. Q2Dx5 from day 7, day 11): +0.8 g
- Average Body Weight Change ([1]; 0.4 mg/kg i.p. Q2Dx5 from day 7, day 13): +0.5 g
- Average Body Weight Change ([1]; 0.4 mg/kg i.p. Q2Dx5 from day 7, day 15): +1.9 g
- Average Body Weight Change ([1]; 0.4 mg/kg i.p. Q2Dx5 from day 7, day 17): +2.1 g
- Average Tumor Volume (T/C), Day 11 [1, 16]: 0.80 T/C
- Average Tumor Volume (T/C), Day 13 [1, 16]: 0.56 T/C
- Average Tumor Volume (T/C), Day 15 [1, 16]: 0.83 T/C
- Average Tumor Volume (T/C), Day 17 [1, 16]: 0.88 T/C
- Average Body Weight, Day 7 [1, 16]: 26.4 g
- Average Body Weight, Day 7 [1, 17]: 25.7 g
- Average Tumor Volume (T/C), Day 11 [1, 17]: 0.65 T/C
- Average Tumor Volume (T/C), Day 13 [1, 17]: 0.54 T/C
- Average Tumor Volume (T/C), Day 15 [1, 17]: 0.56 T/C
- Average Tumor Volume (T/C), Day 17 [1, 17]: 0.88 T/C
- Note: died (mice died/total) ([1]; male, athymic nude (nu/nu), mouse, in vivo): 0/7 died
- Note: died (mice died/total) ([1]; male, athymic nude (nu/nu), outbred, Swiss background, mouse, in vivo): 1/7 died
- Average Tumor Size (T/C) ([1]; mouse, in vivo): 0.88 and 0.65 and 0.54 and 0.56 and 0.80 and 0.83
- Average Body Weight (change), Day 13 [2]: +2.3 g
- Average Body Weight (change), Day 15 [2]: +3.2 g
- Tumor Disappearance [2]: 2/3
- Average Tumor Size, Day 11 ([2]; control 96): 11 mm^3
- Average Tumor Size, Day 13 ([2]; control 128): 11 mm^3
- Average Tumor Size, Day 15 ([2]; control 306): 11 mm^3
- Average Tumor Size, Day 17 ([2]; control 553): 7 mm^3
- Average Body Weight, Day 7 ([2]; initial weight): 25.5 g
